Data taken from paper PMC8037142, “Design, Synthesis, Molecular Modeling and Antitumor Evaluation of Novel Indolyl-Pyrimidine Derivatives with EGFR Inhibitory Activity” (Molecules, 2021).

Tests used:
[1] = tested on: MCF-7 breast cancer cell line; assay: Resazurin Cell Growth Inhibition Assay, MCF-7; assay type: cell-based; conditions: Homo sapiens, MCF7; MCF-7, 48 h, mean ± SD of three experiments; read-out: Cytotoxic Activity IC50
Protocol: (§1) Compounds 1–4 were assessed for their in vitro cytotoxic activity against three human cell lines i.e., breast (MCF-7), liver (HepG2), colon (HCT-116) cancer cell lines as well as in lung fibroblast (WI38) normal cell line using the Resazurin Cell Growth Inhibition Assay. Both erlotinib and 5-Fluorouracil (5-FU) were used as reference drugs. Concentrations of the tested compounds that give about 50% inhibition of cell viability (IC50, mean of triplicate) in µM were obtained. […] However, if replaced by a hydrazone substituent, a more prominent efficacy toward the three cancer cell lines was observed. […] The most promising in vitro antiproliferative activity was obtained when the hydrazone is bearing electron-withdrawal groups i.e., 4-chlorobenzylidene moiety (compound 3f), 3,4-dichloro benzylidene moiety (compound 3g) and 4-fluorobenzylidene moiety (compound 3h) compared to the standard treatment (Table 1, Figure 5). The inhibitory activity of compounds was reduced when the hydrazone group is bearing electron donating groups i.e., 4-methyl group (compound 3b), 2-methoxy group (compound 3c), 4-hydroxy (compound 3d) and 4-dimethylamino group (compound 3e). The trend of antiproliferative activity of compounds […] against all tested cell lines has the following descending order: (3g > 3h >3f >3a >3b > 3c > 3d > 3e). […]. […] This is mainly because this compound has the highest lipophilicity as well as less electron density as it has 2-Cl atoms (more electronegativity) on the indolyl pyrimidine-thiazolidinone.
(§2) In vitro cytotoxicity was measured according to the Resazurin Cell Growth Inhibition Assay Alamar Blue or Resazurin (Promega, Mannheim, Germany) reduction assay was used to assess the cytotoxicity of the studied samples. The assay tests cellular viability and mitochondrial function. Briefly, adherent cells were grown in tissue culture flasks, and then harvested by treating the flasks with 0.025% trypsin and 0.25 mM EDTA for 5 min. Once detached, cells were washed, counted, and an aliquot (5 × 10^3 cells) were placed in each well of a 96-well cell culture plate in a total volume of […]. Cells were allowed to attach overnight and then treated with samples. […]. Each assay was performed as triplicates. […] […]. The viability was compared based on a comparison with untreated cells. IC50 (on cancer cells) were the concentration of sample required to inhibit 50% of the cell proliferation and were calculated from a calibration curve by a linear regression using Microsoft Excel.

[2] = tested on: HCT-116 colon cancer cell line; assay: Resazurin Cell Growth Inhibition Assay, HCT-116; assay type: cell-based, human; conditions: Homo sapiens, HCT-116, 48 h, mean ± SD of three experiments, read-out: Cytotoxic Activity IC50
Protocol: as §1, §2

[3] = tested on: HepG2 liver cancer cell line; assay: Resazurin Cell Growth Inhibition Assay, HepG2; assay type: cell-based, human; conditions: Homo sapiens, HepG2, 48 h, mean ± SD of three experiments, read-out: Cytotoxic Activity IC50
Protocol: as §1, §2

[4] = Resazurin Cell Growth Inhibition Assay, WI38 normal cells; assay type: cell-based; conditions: human, WI38 normal lung fibroblast cells, WI-38 normal cells, mean ± SD of three experiments, read-out: Cytotoxic Activity IC50
Protocol: as §1, §2

[5] = tested on: MCF-7, HepG2 and HCT-116 cancer cell lines; assay: Resazurin assay, range over the three cancer cell lines; assay type: cell-based; conditions: Homo sapiens; range over MCF-7, HepG2 and HCT-116; read-out: IC50 range against the cancer cell lines
Protocol: Compounds 1–4 were assessed for their in vitro cytotoxic activity against three human cell lines i.e., breast (MCF-7), liver (HepG2), colon (HCT-116) cancer cell lines as well as in lung fibroblast (WI38) normal cell line using the Resazurin Cell Growth Inhibition Assay. Both erlotinib and 5-Fluorouracil (5-FU) were used as reference drugs. Concentrations of the tested compounds that give about 50% inhibition of cell viability (IC50, mean of triplicate) in µM were obtained. […] However, if replaced by a hydrazone substituent, a more prominent efficacy toward the three cancer cell lines was observed. […] The most promising in vitro antiproliferative activity was obtained when the hydrazone is bearing electron-withdrawal groups i.e., 4-chlorobenzylidene moiety (compound 3f), 3,4-dichloro benzylidene moiety (compound 3g) and 4-fluorobenzylidene moiety (compound 3h) compared to the standard treatment (Table 1, Figure 5). […]
In vitro cytotoxicity was measured according to the Resazurin Cell Growth Inhibition Assay Alamar Blue or Resazurin (Promega, Mannheim, Germany) reduction assay was used to assess the cytotoxicity of the studied samples. […] Once detached, cells were washed, counted, and an aliquot (5 × 10^3 cells) were placed in each well of a 96-well cell culture plate in a total volume of 100 mL. […]

[6] = tested on: Ehrlich ascites carcinoma (EAC); assay: In vivo antitumor assay in EAC tumor bearing mice; conditions: 0.5 mg/mouse for nine days; for Tumor Volume: ascitic fluid; for MST (mean survival time): mean of two experiments; for Viable Tumor Cell Count: trypan blue
Protocol: The antitumor activity of these compounds was assessed by the change in tumor volume, viable cell count, mean survival time (MST) and % increase in lifespan (% ILS) of the EAC tumor bearing mice and 5-FU (standard treatment). The mean survival time (MST) and % increase in lifespan (% ILS) of EAC tumor bearing mice, as well as the influence of these compounds on viable tumor cells and the tumor volume, are shown in Table 2. The hematological profile of these mice was also assessed in comparison with the standard treatment with 5-FU, and no obvious effect on RBCs or WBCs was observed. […] MST = (day of first death + day of last death)/2 %ILS = [(MST of treated group/MST of control group) − 1] × 100 […]
In vivo antitumor evaluation was carried out as previously reported (see Supplementary Materials).
2. Biological Evaluation Details: a) In vivo antitumor assay: Materials . Adult Swiss male mice (weighing 20 -25 g) were obtained from the Department of Pharmacology, Faculty of Pharmacy, Mansoura University, Egypt.
They were kept in microlon boxes at temperature 25 ± 2 °C with a regular 12 hrs light/dark cycle. In addition, food and water were available. EAC cells (procured from NCI, Cairo, Egypt) were harvested and prepared, then their total number was counted.
Procedure. 7 Groups of mice ( n = 4) were used.
Group 1: Negative control (no EAC cells) - received normal saline.
Group 2: Positive control (EAC cells) - received normal saline.
Group 3: EAC cells - treated with compound 3g (0.5 mg/mouse).
Group 4: EAC cells - treated with compound 4f (0.5 mg/mouse).
Group 5: EAC cells - treated with compound 4g (0.5 mg/mouse).
Group 6: EAC cells - treated with compound 4h (0.5 mg/mouse).
Group 7: EAC cells - treated with 5-fluorouracil (0.5 mg/mouse).
2 x 10^6 EAC cells were injected intraperitoneally in each mouse (groups 2-7). After […]
for nine days, then blood samples were withdrawn for assessment of blood count.
Determination of tumor volume
The ascetic fluid was gathered from the peritoneal cavity and its volume was determined. It was then centrifuged, and the packed tumor cell volume was measured.
Determination of viable tumor cell count
100 μL Sample of EAC cells (from three mice per group) was utilized and diluted twenty times with saline. Cells were stained with trypan blue, viable cells are not stained, while the dead ones are stained. The number of viable cells was calculated.

[7] = target: EGFR kinase (Homo sapiens, UniProt P00533); assay: In vitro EGFR inhibitory assay (EnzyChrom Kinase Assay Kit EKIN-400); conditions: for inhibition at 10 µM: read-out: % Inhibition of EGFR
Chain of EGFR kinase (P00533 25-1210): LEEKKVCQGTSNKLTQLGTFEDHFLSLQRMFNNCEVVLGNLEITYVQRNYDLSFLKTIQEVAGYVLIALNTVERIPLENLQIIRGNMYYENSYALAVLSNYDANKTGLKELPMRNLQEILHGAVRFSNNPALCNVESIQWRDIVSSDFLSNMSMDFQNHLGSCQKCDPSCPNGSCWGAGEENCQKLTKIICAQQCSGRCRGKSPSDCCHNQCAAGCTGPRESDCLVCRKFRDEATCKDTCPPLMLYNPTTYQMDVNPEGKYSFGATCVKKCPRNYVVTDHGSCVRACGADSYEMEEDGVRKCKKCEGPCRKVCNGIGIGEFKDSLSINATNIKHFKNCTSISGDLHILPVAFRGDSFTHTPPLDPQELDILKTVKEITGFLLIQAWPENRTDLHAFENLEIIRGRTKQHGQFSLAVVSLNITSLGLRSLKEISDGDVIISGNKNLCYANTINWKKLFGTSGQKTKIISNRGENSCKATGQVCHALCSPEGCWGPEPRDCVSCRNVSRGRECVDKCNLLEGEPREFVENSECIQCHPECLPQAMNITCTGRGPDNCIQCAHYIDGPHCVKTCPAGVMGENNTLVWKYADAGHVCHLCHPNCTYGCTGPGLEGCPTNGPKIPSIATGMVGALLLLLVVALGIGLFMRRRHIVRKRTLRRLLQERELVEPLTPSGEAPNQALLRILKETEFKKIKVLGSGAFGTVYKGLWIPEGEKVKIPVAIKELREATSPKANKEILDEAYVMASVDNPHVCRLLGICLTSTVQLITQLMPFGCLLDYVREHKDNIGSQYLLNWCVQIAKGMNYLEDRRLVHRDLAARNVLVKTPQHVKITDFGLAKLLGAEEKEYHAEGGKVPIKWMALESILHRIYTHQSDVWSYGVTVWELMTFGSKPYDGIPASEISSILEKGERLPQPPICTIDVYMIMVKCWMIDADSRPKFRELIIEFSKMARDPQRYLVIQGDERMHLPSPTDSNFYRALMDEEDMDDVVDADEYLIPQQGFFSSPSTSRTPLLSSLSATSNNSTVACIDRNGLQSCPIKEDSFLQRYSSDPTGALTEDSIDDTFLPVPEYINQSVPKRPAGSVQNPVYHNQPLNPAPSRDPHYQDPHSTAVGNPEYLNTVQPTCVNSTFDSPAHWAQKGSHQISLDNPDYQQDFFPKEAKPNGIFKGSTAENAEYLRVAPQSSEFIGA
Protocol: A first-generation EGFR inhibitor, erlotinib, was used as standard treatment. […] IC50 for these compounds was determined. […] In addition, 20 µL reaction mixture containing the EGFR kinase, ATP, and substrate in the provided assay buffer. Set up a blank control that contains ATP and substrate but no enzyme. Incubate at desired temperature for 30 min. Prepare 900 µL 10µM (adenosine diphosphate) ADP premix by mixing 3 µL of 3 mM standard and 897 µL distilled water. Transfer 20 µL standards into separate wells of the plate. Prepare enough working reagent for each well. Add 40 µL working reagent to each assay well. Tap plate to mix. Incubate at room temperature for 10 min. Read fluorescence intensity at λexc = 530nm and λem = 590 nm, and then calculate kinase activity.

SMILES	IC50 [1] [µM]	IC50 [2] [µM]	IC50 [3] [µM]	IC50 at 48 h [4] [µM]	IC50 [5] [µM]	melting point [°C]	Tumor Volume [6] [mL]	MST (mean survival time) [6] [days]	Viable Tumor Cell Count [6]	IC50 [7] [nM]	inhibition at 10 µM [7] [%]
CCOC(=O)C1=C(C)NC(=S)NC1c1c[nH]c2ccccc12 (stereo not drawn) [Compound 1, Ethyl 4-(1H-indol-3-yl)-6-methyl-2-thioxo-1,2,3,4-tetrahydropyrimidine-5-Carboxylate]	26.8 ± 2.2	27.2 ± 1.11	28.8 ± 2.25	30 ± 1.2	26.8 to 28.2	245 to 247	–	–	–	–	–
CC1=C(C(=O)NN)C(c2c[nH]c3ccccc23)NC(=S)N1 (stereo not drawn) [Compound 2, 4-(1H-indol-3-yl)-6-methyl-2-thioxo-1,2,3,4-tetrahydropyrimidine-5-carbohydrazide]	21.6 ± 1.8	22.2 ± 1.5	25.5 ± 2.17	40.5 ± 2.25	21.6 to 25.5	208 to 210	–	–	–	–	–
CC1=C(C(=O)NN2C(=O)CSC2c2ccc(F)cc2)C(c2c[nH]c3ccccc23)NC(=S)N1 (stereo not drawn) [Compound 4h, N-(2-(4-fluorophenyl)-4-oxothiazolidin-3-yl)-4-(1H-indol-3-yl)-6-methyl-2-thioxo-1,2,3,4-tetrahydropyrimidine-5-carboxamide]	6.6 ± 1.28	7.02 ± 0.46	7.5 ± 1.29	18.1 ± 2.06	–	–	1.18	40	28.50 10^6/mL	390 ± 20	70
CC1=C(C(=O)NN=Cc2ccc(Cl)c(Cl)c2)C(c2c[nH]c3ccccc23)NC(=S)N1 (stereo not drawn) [Compound 3g, 4-(1H-indol-3-yl)-6-methyl-2-thioxo-1,2,3,4-tetrahydropyrimidine-5-carboxylic acid (3,4-dichloro-benzylidene)-hydrazide]	9 ± 2.4	8.5 ± 2.3	10 ± 2.46	30 ± 3.72	–	–	2.97	30	48.00 10^6/mL	500 ± 40	53
